According to patent US4293489A, “Derivatives of A-30912A nucleus” (Eli Lilly and Company, priority 1980, dated 1981):
In brackets after ≈: the same amount, converted by molar mass. Like-named read-outs stand apart in the source and are kept apart here. Starred links: 1 amine or outer side, 2 acyl side, 3 side chain; linkers in the order of their positions; H or OH if unused. Positions of bridges follow the written chain, without caps; N, C: chain ends. Non-standard residues stand in square brackets, D forms with d. Residues, ends and D or L forms follow the SMILES beside them. *: point of attachment. Orn(4R-OH,5R-OH) = O=C([C@H](C[C@@H](O)[C@@H](O)N[*:3])N[*:1])[*:2]; hTyr(3S-OH,4S-OH) = N[C@H](C(=O)O)[C@H](O)[C@@H](O)c1ccc(O)cc1; Pro(3S-OH,4S-Me) = C[C@H]1CN[C@H](C(=O)O)[C@H]1O; Benzoyl(4-octyloxy) = CCCCCCCCOc1ccc(C(=O)*)cc1; X2 = CCCCCCCCCCCCCCS(=O)(=O)c1ccc(C(=O)*)cc1; X5 = CCCCCCCCCCCCS(=O)(=O)c1ccc(C(=O)*)cc1; X4 = CCCCCCCCCCS(=O)(=O)c1ccc(C(=O)*)cc1; X3 = CCCCCCCCCCCCCCSc1ccc(C(=O)*)cc1; X1 = CCCCCCCCCCCCSc1ccc(C(=O)*)cc1; Hyp = O=C(O)[C@@H]1C[C@@H](O)CN1; X6 = CCCCCCCCCCSc1ccc(C(=O)*)cc1; X8 = CCCCCCCCCOc1ccc(C(=O)*)cc1

What was measured:
[1] = Blood levels after oral administration in mice; details: mouse, 416 mg/kg
Protocol: (§6) In this test, mice are gavaged with a dose of 416 mg/kg of the test compound suspended in 33% PEG 400-water. At time intervals, blood samples are taken from the orbital sinus and are assayed for antibiotic activity as follows: A 7 mm. disc containing 20 μl of whole blood is placed on agar seeded with Aspergillus montevidensis A35137. After 40 hours incubation at 30° C. zones of inhibition from the blood samples are compared to a standard obtained from the test compound, and the amount of compound in the blood sample is calculated.

[2] = Toxicity on intravenous administration to a dog; format: in vivo; details: 100 mg/kg per day for five days
[3] = test system: pathogenic fungi; test: Antifungal activity, standard biological test procedures; format: cell-based; details: cyclic nucleus lacking the linoleoyl side chain
Description: The compounds of Formula III inhibit the growth of pathogenic fungi as evidenced by standard biological test procedures. The compounds are useful, therefore, for controlling the growth of fungi on environmental surfaces (as an antiseptic) or in treating infections caused by fungi. […] Thus, the compounds are particularly useful in treating infections caused by strains of C. albicans (candidosis). The compounds of Formula III have also shown activity in vitro in agar-plate disc diffusion tests against Trichophyton mentagrophytes, a dermatophytic organism. Activity has also been found in in vitro agar-plate disc-diffusion tests against Saccharomyces pastorianus, and Neurospora crassa. Certain compounds (as shown in Example 6, Table 9) give significant blood levels upon oral administration in mice.

[4] = test system: Candida albicans SBH16; test: Agar dilution method, MIC; format: cell-based
Protocol: (§1) Tables 10 and 11 give the results of the testing in vitro of the compounds of Examples 3 and 4 by agar-plate disc-diffusion methods. In Table 10 activity is measured by the size (diameter in mm) of the observed zone of inhibition of the microorganism produced by the test compound. In Table 11, activity is measured by the minimal inhibitory concentration (MIC) of the substance (μg/disc) required to inhibit growth of the test organism. Table 12 gives the results of the testing in vitro of the p-(n-octyloxy)benzoyl derivative of A30912A nucleus [Formula III, R^1 is p-(n-octyloxy)benzoyl] against five strains of Candida albicans by the agar dilution method. In Table 12 activity is measured by the minimal inhibitory concentration (MIC) of the substance (μg/ml) required to inhibit the test organism.

[5] = test system: Candida albicans A-26; test: Agar dilution method, MIC; format: cell-based
Protocol: as §1

[6] = test system: Candida albicans SBH29; test: Agar dilution method, MIC; format: cell-based
Protocol: as §1

[7] = test system: Candida albicans SBH28; test: Agar dilution method, MIC; format: cell-based
Protocol: as §1

[8] = test system: Candida albicans SBH31; test: Agar dilution method, MIC; format: cell-based
Protocol: as §1

[9] = test system: Trichophyton mentagraphytes A-23; test: Agar plate disc diffusion test, zone of inhibition; format: cell-based, Trichophyton mentagrophytes
Protocol: as §1
(§2) ^(a) Compounds were tested as suspension in methanol. The compounds
(§3) were tested at a concentration of 1 mg/ml. by dipping a 7mm disc into the
(§4) suspension and placing it on the agar surface. Incubation: 24-48 hours at
(§5) *Measurable zone of inhibition with regrowth of organism around disc.

[10] = test system: Saccharomyces pastoranius X-52; test: Agar plate disc diffusion test, zone of inhibition; format: cell-based, Saccharomyces pastorianus
Protocol: as §1, §2, §3, §4, §5

[11] = test system: Neurospora crassa 846; test: Agar plate disc diffusion test, zone of inhibition; format: cell-based
Protocol: as §1, §2, §3, §4, §5

[12] = test system: Candida albicans A-26; test: Agar plate disc diffusion test, zone of inhibition; format: cell-based; details: 1 mg/ml suspension in methanol, 7mm disc; 24-48 hours at 25-37° C.
Protocol: as §1, §2, §3, §4, §5

[13] = in vivo; details: mouse, po, 416 mg/kg
Protocol: as §6

[14] = Neurospora crassa, 846, 1 mg/ml suspension in methanol, 7mm disc, 24-48 hours at 25-37° C., read-out: Size of Zone of Inhibition
[15] = A23, 1 mg/ml suspension in methanol, 7mm disc, 24-48 hours at 25-37° C., read-out: Size of Zone of Inhibition
[16] = X52, 1 mg/ml suspension in methanol, 7mm disc, 24-48 hours at 25-37° C., read-out: Size of Zone of Inhibition

Structure (SMILES): CCCCCCCCOc1ccc(C(=O)N[C@H]2C[C@@H](O)[C@@H](O)NC(=O)[C@@H]3[C@@H](O)[C@@H](C)CN3C(=O)[C@H]([C@@H](C)O)NC(=O)[C@H]([C@H](O)[C@@H](O)c3ccc(O)cc3)NC(=O)[C@@H]3C[C@@H](O)CN3C(=O)[C@H]([C@@H](C)O)NC2=O)cc1 [drawing 181] ({Benzoyl(4-octyloxy)}-[Orn(4R-OH,5R-OH)]T[Hyp][hTyr(3S-OH,4S-OH)]T[Pro(3S-OH,4S-Me)]; lactam 1-C)
- Cmax [1]: 23000 ng/mL

Structure (SMILES): CCCCCCCCOc1ccc(C(=O)N[C@H]2C[C@@H](O)[C@@H](O)NC(=O)[C@@H]3[C@@H](O)[C@@H](C)CN3C(=O)[C@H]([C@@H](C)O)NC(=O)[C@H]([C@H](O)[C@@H](O)c3ccc(O)cc3)NC(=O)[C@@H]3C[C@@H](O)CN3C(=O)[C@H]([C@@H](C)O)NC2=O)cc1 [p-(n-octyloxy)benzoyl derivative of A-30912A nucleus] ({Benzoyl(4-octyloxy)}-[Orn(4R-OH,5R-OH)]T[Hyp][hTyr(3S-OH,4S-OH)]T[Pro(3S-OH,4S-Me)]; lactam 1-C)
- SGPT levels [2]: increased SGPT levels were observed
- outward signs of toxicity [2]: no outward signs of toxicity

Structure (SMILES): C[C@@H](O)[C@@H]1NC(=O)[C@H]([C@H](O)[C@@H](O)c2ccc(O)cc2)NC(=O)[C@@H]2C[C@@H](O)CN2C(=O)[C@H]([C@@H](C)O)NC(=O)[C@@H](N)C[C@@H](O)[C@@H](O)NC(=O)[C@@H]2[C@@H](O)[C@@H](C)CN2C1=O [A-30912A nucleus] (H-[Orn(4R-OH,5R-OH)]T[Hyp][hTyr(3S-OH,4S-OH)]T[Pro(3S-OH,4S-Me)]; lactam 1-C)
- antifungal activity [3]: substantially devoid of antifungal activity

Structure (SMILES): CCCCCCCCCOc1ccc(C(=O)N[C@H]2C[C@@H](O)[C@@H](O)NC(=O)[C@@H]3[C@@H](O)[C@@H](C)CN3C(=O)[C@H]([C@@H](C)O)NC(=O)[C@H]([C@H](O)[C@@H](O)c3ccc(O)cc3)NC(=O)[C@@H]3C[C@@H](O)CN3C(=O)[C@H]([C@@H](C)O)NC2=O)cc1 (X8-[Orn(4R-OH,5R-OH)]T[Hyp][hTyr(3S-OH,4S-OH)]T[Pro(3S-OH,4S-Me)]; lactam 1-C)
- MIC ([4]; SBH16): 0.312 µg/mL (≈ 0.299 µM)
- MIC ([5]; A26): 0.312 µg/mL (≈ 0.299 µM)
- MIC ([6]; SBH29): 0.312 µg/mL (≈ 0.299 µM)
- MIC ([7]; SBH28): 0.312 µg/mL (≈ 0.299 µM)
- MIC ([8]; SBH31): 0.312 µg/mL (≈ 0.299 µM)

Structure (SMILES): CCCCCCCCCCCCCCS(=O)(=O)c1ccc(C(=O)N[C@H]2C[C@@H](O)[C@@H](O)NC(=O)[C@@H]3[C@@H](O)[C@@H](C)CN3C(=O)[C@H]([C@@H](C)O)NC(=O)[C@H]([C@H](O)[C@@H](O)c3ccc(O)cc3)NC(=O)[C@@H]3C[C@@H](O)CN3C(=O)[C@H]([C@@H](C)O)NC2=O)cc1 [drawing 114] (X2-[Orn(4R-OH,5R-OH)]T[Hyp][hTyr(3S-OH,4S-OH)]T[Pro(3S-OH,4S-Me)]; lactam 1-C)
- zone of inhibition at 1000 µg/mL ([9]; A23, read-out: Size of Zone of Inhibition): 23 mm
- zone of inhibition at 1000 µg/mL ([10]; X52, read-out: Size of Zone of Inhibition): 23 mm
- zone of inhibition at 1000 µg/mL [11, 14]: 29 mm
- Size of Zone of Inhibition [12]: 30 mm

Structure (SMILES): CCCCCCCCCCSc1ccc(C(=O)N[C@H]2C[C@@H](O)[C@@H](O)NC(=O)[C@@H]3[C@@H](O)[C@@H](C)CN3C(=O)[C@H]([C@@H](C)O)NC(=O)[C@H]([C@H](O)[C@@H](O)c3ccc(O)cc3)NC(=O)[C@@H]3C[C@@H](O)CN3C(=O)[C@H]([C@@H](C)O)NC2=O)cc1 [drawing 186] (X6-[Orn(4R-OH,5R-OH)]T[Hyp][hTyr(3S-OH,4S-OH)]T[Pro(3S-OH,4S-Me)]; lactam 1-C)
- Cmax [13]: 5000 ng/mL

Structure (SMILES): CCCCCCCCCCS(=O)(=O)c1ccc(C(=O)N[C@H]2C[C@@H](O)[C@@H](O)NC(=O)[C@@H]3[C@@H](O)[C@@H](C)CN3C(=O)[C@H]([C@@H](C)O)NC(=O)[C@H]([C@H](O)[C@@H](O)c3ccc(O)cc3)NC(=O)[C@@H]3C[C@@H](O)CN3C(=O)[C@H]([C@@H](C)O)NC2=O)cc1 [drawing 112] (X4-[Orn(4R-OH,5R-OH)]T[Hyp][hTyr(3S-OH,4S-OH)]T[Pro(3S-OH,4S-Me)]; lactam 1-C)
- zone of inhibition at 1000 µg/mL [9, 15]: 32 mm
- zone of inhibition at 1000 µg/mL [10, 16]: 16 mm
- zone of inhibition at 1000 µg/mL [11, 14]: 31 mm
- Size of Zone of Inhibition [12]: 55 mm

Structure (SMILES): CCCCCCCCCCCCCCSc1ccc(C(=O)N[C@H]2C[C@@H](O)[C@@H](O)NC(=O)[C@@H]3[C@@H](O)[C@@H](C)CN3C(=O)[C@H]([C@@H](C)O)NC(=O)[C@H]([C@H](O)[C@@H](O)c3ccc(O)cc3)NC(=O)[C@@H]3C[C@@H](O)CN3C(=O)[C@H]([C@@H](C)O)NC2=O)cc1 [drawing 150] (X3-[Orn(4R-OH,5R-OH)]T[Hyp][hTyr(3S-OH,4S-OH)]T[Pro(3S-OH,4S-Me)]; lactam 1-C)
- MIC ([4]; strain SBH16, agar dilution, read-out: MIC): 2.5 µg/mL (≈ 2.21 µM)
- MIC ([5]; A26, strain A-26, agar dilution, read-out: MIC): 2.5 µg/mL (≈ 2.21 µM)
- MIC ([6]; strain SBH29, agar dilution, read-out: MIC): 2.5 µg/mL (≈ 2.21 µM)
- MIC ([7]; strain SBH28, agar dilution, read-out: MIC): 2.5 µg/mL (≈ 2.21 µM)
- MIC ([8]; strain SBH31, agar dilution, read-out: MIC): 2.5 µg/mL (≈ 2.21 µM)

Structure (SMILES): CCCCCCCCCCCCSc1ccc(C(=O)N[C@H]2C[C@@H](O)[C@@H](O)NC(=O)[C@@H]3[C@@H](O)[C@@H](C)CN3C(=O)[C@H]([C@@H](C)O)NC(=O)[C@H]([C@H](O)[C@@H](O)c3ccc(O)cc3)NC(=O)[C@@H]3C[C@@H](O)CN3C(=O)[C@H]([C@@H](C)O)NC2=O)cc1 [drawing 149] (X1-[Orn(4R-OH,5R-OH)]T[Hyp][hTyr(3S-OH,4S-OH)]T[Pro(3S-OH,4S-Me)]; lactam 1-C)
- MIC ([4]; SBH16): 0.625 µg/mL (≈ 0.567 µM)
- MIC ([5]; A26): 0.625 µg/mL (≈ 0.567 µM)
- MIC ([6]; SBH29): 0.625 µg/mL (≈ 0.567 µM)
- MIC ([7]; SBH28): 0.625 µg/mL (≈ 0.567 µM)
- MIC ([8]; SBH31): 0.625 µg/mL (≈ 0.567 µM)

Structure (SMILES): CCCCCCCCOc1ccc(C(=O)N[C@H]2C[C@@H](O)[C@@H](O)NC(=O)[C@@H]3[C@@H](O)[C@@H](C)CN3C(=O)[C@H]([C@@H](C)O)NC(=O)[C@H]([C@H](O)[C@@H](O)c3ccc(O)cc3)NC(=O)[C@@H]3C[C@@H](O)CN3C(=O)[C@H]([C@@H](C)O)NC2=O)cc1 [drawing 108] ({Benzoyl(4-octyloxy)}-[Orn(4R-OH,5R-OH)]T[Hyp][hTyr(3S-OH,4S-OH)]T[Pro(3S-OH,4S-Me)]; lactam 1-C)
- zone of inhibition at 1000 µg/mL [10, 16]: 18 mm
- zone of inhibition at 1000 µg/mL ([11]; Neurospora crassa, 846, read-out: Size of Zone of Inhibition): 23 mm
- Size of Zone of Inhibition [12]: 28 mm

Structure (SMILES): CCCCCCCCCCCCS(=O)(=O)c1ccc(C(=O)N[C@H]2C[C@@H](O)[C@@H](O)NC(=O)[C@@H]3[C@@H](O)[C@@H](C)CN3C(=O)[C@H]([C@@H](C)O)NC(=O)[C@H]([C@H](O)[C@@H](O)c3ccc(O)cc3)NC(=O)[C@@H]3C[C@@H](O)CN3C(=O)[C@H]([C@@H](C)O)NC2=O)cc1 [drawing 113] (X5-[Orn(4R-OH,5R-OH)]T[Hyp][hTyr(3S-OH,4S-OH)]T[Pro(3S-OH,4S-Me)]; lactam 1-C)
- zone of inhibition at 1000 µg/mL [9, 15]: 26 mm
- zone of inhibition at 1000 µg/mL [11, 14]: 37 mm
- Size of Zone of Inhibition [12]: 48 mm
